Tests used:
[1] = tested on: DANG; experiment: Cell cycle analysis; assay type: cell-based, human; settings: 2 days
Description: The area of each bar is divided to indicate the percentage of cells in G0/G1, S and G2 phase.
Cells were plated in six-well plates, and 5-6 hours later chemotherapeutic agents were added for either 24 h 48 h or 3 days. Cells floating in the medium were combined with the adherent cell layer, which was trypsinized. Cells were washed. Either cell cycle analysis was started directly or cell surface staining was done before as described above. Cells are resuspended in 1 ml PBS and added to 3 ml 4% PFA. After 15 min fixation of cells at room temperature cells are pelleted and washed. For RNAse treatment cells were resuspended in 200 μl RNAse (10000 U/ml) plus 0.05% Triton X-100 and incubated for 30 min at 37° C. 1 ml PBS was added and samples were centrifuged and resuspended in 200 μl PBS/PJ 50 μg/ml. At least 30 min later samples were ready to be analyzed by flow cytometry. Cell cycle phase distribution was determined using FlowJo software to analyze DNA content histograms.

[2] = tested on: Panc05.04; experiment: IMAB362-mediated ADCC assay (luciferase, human PBMCs, E:T 40:1); assay type: cell-based
Description: For ADCC assays pancreatic cancer cell lines were transiently transfected with luciferase RNA. This luciferase RNA (pST1-luc2mut-2 hBgUTR-A121-EciI vector (pST1-109)) was produced with an ARCA cap and dissolved in H2O. RNA was stored in 22 μl aliquots at −80° C. For all pancreas cell lines the optimal electroporation conditions were determined resulting in highest transfection rates and viability of the cells. In each assay cells were detached with PBS/5 mM EDTA and 2.5×10^6 cells dissolved in 250 μl X-Vivo were mixed in ice-cold cuvettes with 10 μg RNA. Cells were immediately electroporated (GenePulser Xcell, Biorad) and resuspended in pre-warmed Assay-medium adjusting the cells to 5×10^5 cells/ml. Tested electroporation conditions were for all cell lines: • EP1: 250 V, 475 μF • EP2: 200 V, 300 μF • EP3: 150 V, 300 μF • EP4: 200 V, 400 μF • EP5: 250 V, 950 μF • Control: 0 V, 0 μF
The viability of the cells was determined directly after electroporation using CASY or by staining cells with Trypan blue and determining the percentage of dead cells in the Neubauer chamber. Cells were seeded in quadruplicates in white 96-well plates (2.5×10^4 cells/well) and incubated for 24 h. Subsequently, luciferase activity was measured in a luminometer (Tecan Infinite200) after addition of luciferin mix for 90 min. Transfection was successful and consequently ADCC measurable, if RLU values >1.000 were obtained.
Pancreatic cancer target cells were seeded two days in advance in flasks to obtain 80-90% confluent cultures on the day ADCC started. […] NUGC-4 sub 10cH11 subE10 Luci #2 cells (8000 cells/well) were seeded in addition as positive controls in all assays. Cells were cultivated for 4-6 h before addition of antibody and purified PBMCs. PBMCs were prepared from fresh human buffy coat obtained from healthy donors. About 3× 20-25 ml blood was diluted (1:2) with PBS and carefully layered on 4×15 ml Ficol-Paque Plus (GE Healthcare) in 50 ml Falcon tubes. Gradients were centrifuged (25 min, 700 g). After centrifugation, peripheral blood mononuclear cells (PBMC) were collected from the interphase, washed in PBS/2 mM EDTA, centrifuged (5 min, 468 g), again resuspended in PBS/2 mM EDTA and centrifuged (10 min, 208 g) to remove the platelets. The pellets were resuspended in 50 ml PBS/2 mM EDTA and cells were counted. PBMCs were centrifuged (5 min, 468 g) and resuspended in X-Vivo-15 culture medium at a concentration of 1.6×10^7 cells/ml for addition to the pancreas cells and 1.28×10^7 cells/ml for addition to the NUGC-4 sub 10cH11 subE10 Luci #2 cells.
Of each dilution 25 μl was added in quadruplicates to the target cells. PBS without antibodies was added in the medium and lysis control wells. Subsequently, 25 μl PBMCs were added to each well (E:T ratio=40:1) and plates were incubated for 24 h±1 h at 37° C., 5% CO2.
The next day, 10 μl 8% Triton X100/PBS solution was added to the lysis control wells and 10 μl PBS in all other wells. Finally, 50 μl freshly prepared luciferin stock solution was added (160 mM HEPES, 1×PBS, 3.84 mg/ml D-Luciferin (BD Biosciences)) to each well and plates were incubated for 80 min at RT in the dark. Luminescence resulting from the oxidation of […] by the luciferase of viable cells was measured using a microplate-reader (Infinite200, Tecan, Switzerland). Percentage of cellular cytotoxicity was calculated using the following formula: Specific killing (%)=100−[(RLUsample−RLUtriton)/(RLUmedium ctrl−RLUtriton)×100] […]

| Compound | cell cycle effect [1] | ADCC killing by IMAB362 and PBMCs ([2]; Panc05.04) | EC50 of effector cell-dependent killing (ADCC) ([2]; Panc05.04 (pooled with DANG), PBMCs of different donors, E:T 40:1) [µg/mL] | maximum killing rate (ADCC) ([2]; Panc05.04, at highest antibody concentrations) [%] | ADCC EC50 ([2]; Panc05.04, at least 2 donors) [µg/mL] | ADCC Max. lysis ([2]; Panc05.04, at least 2 donors) [%] |
| --- | --- | --- | --- | --- | --- | --- |
| Nc1ccn([C@@H]2O[C@H](CO)[C@@H](O)C2(F)F)c(=O)n1 [gemcitabine, 4-amino-1-(2-deoxy-2,2-difluoro-β-D-erythro-pentofuranosyl)pyrimidin-2(1H)-one] | cell cycle arrest of cells in S-Phase | – | – | – | – | – |
| IMAB362: chimeric IgG1 antibody directed against CLDN18.2, developed by Ganymed Pharmaceuticals AG | – | efficiently killed | 0.1 to 38 | ~50 | 5.7288 ± 4.4351 | 67.1 ± 6.8 |

Source: patent US11826402B2, “Combination therapy involving antibodies against claudin 18.2 for treatment of metastatic pancreatic adenocarcinoma” (Astellas Pharma Inc., priority 2013, dated 2023)
